# From PMC5131319, “Occurrence, temporal trends, and half-lives of perfluoroalkyl acids (PFAAs) in occupational workers in China” (Scientific Reports, 2016)
# Values joined by “and” are separate entries in the source; they are usually repeats but may differ in a detail not shown here. Identical values can stand only once.
# Legend:
# Type in all cases: in vivo, human
# [1] = Half-life estimated by daily clearance rates (first-order model, k = Cltotal/Vd)
# Description: (§1) Olsen et al.[21] found linear relationship between the logarithm of serum PFAAs concentration and time, and a first order model was adopted to estimate the half-lives of PFAAs. The elimination of PFAAs in humans was also described with the following equation: […]
# (§2) If we set C(t) as 1/2C0, then the half-life
# (§3) where k is the elimination rate constant. We calculated k using two approaches in the present study. In the first approach, k is defined as Cltotal/Vd, where Vd stands for the volume of distribution of PFAAs in the human body. Cltotal represents the total daily PFAAs clearance in the human body; for men and women older than 50, it refers to renal clearance, while for young women, it is defined as the sum of menstrual clearance and renal clearance. To keep consistency with other studies, Vd of PFOS and PFHxS were set at 230 mL kg^−1, and Vd of PFOA was set at 170 mL kg^−1 in this study. In the second approach, k is defined as the average annual decline rates of PFAAs in workers who participated in this study.
# We used a first order model to estimate the half-lives of PFAAs in workers (Eq (2)). k was defined as […], where Cltotal referred to renal clearance for men and women older than 50 and to the sum of menstrual clearance and renal clearance for young women. According to Eq (2), the half-lives of PFHxS, PFOA, and PFOS for the occupational workers tested ranged from 0.51–3799 years, 0.44–3663 years, and 0.76–30475 years, with GM and median values of 14.7 and 11.7, 4.1 and 4.0, 32.6 and 21.6 years, respectively (Table 2). […] The GM values of the half-lives of PFHxS, PFOA, and PFOS for men here were 19.9, 4.7, and 60.9 years, respectively, while those for women were 7.5, 3.1, and 8.0 years, respectively. The half-lives estimated by the limited clearance route information could be considered as the upper limits for PFAAs. It seemed likely that the unrealistically long half-life estimates derived from the urinary data were actually evidence of the contribution of fecal elimination to the clearance of these chemicals. The extremely long half-lives of PFAAs, such as 3799 years for PFHxS, 3663 years for PFOA, and 30475 years for PFOS, were caused by the application of LOD/2 instead of ND in workers’ urine samples. The geometric mean or median value of the PFAAs half-lives can better reflect the actual situation.
# [2] = Half-life estimated by annual decline rates of serum PFAAs (first-order model)
# Description: as §1, §2, §3
# Serum PFAAs of workers were sequentially measured for 5 years, and they fluctuated during our sampling period, although different serum PFAAs decreased in certain years. […] For PFOA, 31 out of 42 workers decreased in the period of 2011–2012, and the serum PFOA concentration dropped by 41%. […] We assumed that there were no new inputs of PFAAs in these workers, and thus k in Eq (2) was set as the average annual serum PFAA decline rate. The half-lives of PFHxS, PFOA, and PFOS estimated by Eq (2) were 3.6, 1.7, and 1.9 years.
# [3] = Daily renal clearance rate (Clrenal) and serum-to-urine ratio from paired serum and urine; conditions: for Renal clearance rate (PFOS): individual workers
# Description: The positive correlations between the PFAAs in the serum and the paired urine samples were highly statistically significant, with correlation coefficients of 0.87, 0.64, and 0.72 for PFHxS, PFOA, and PFOS, respectively, (p < 0.01). […] Additionally, the relative abundances of PFOS, PFHxS, and PFOA between the serum and paired urine samples were quite different. The relative abundances in the serum are 64%, 24%, and 12%, respectively, while those in the urine were 19%, 31%, and 40%, respectively. […] Moreover, the ratio of serum-to-urine concentrations (S/U) might be an indicator for PFAA excretion in humans because PFAAs could concentrate in serum while urine excretion is considered an important PFAA elimination pathway. The GM values of S/U for PFHxS, PFOA, and PFOS in all samples were 697, 288, and 1782, respectively, indicating the difficulty in PFAA renal elimination from the workers. To exclude the potential effect of individual differences related to demographic information such as body weight and gender, the daily renal clearance rate (Clrenal) was introduced in the study. Clrenal is a parameter defined in Eq (3) that adjusts the S/U through body weight and the gender-specific daily urine excretion volume.
# Paired samples with either concentration under the LOD were set as LOD/2 in the Clrenal study. The urine excretion volumes of males and females were set at 1.4 and 1.2 L/day in the study, respectively, and the body weight values of individual workers were obtained from our questionnaires. The calculated Clrenal values for PFHxS, PFOA, PFOS ranged from 2.0 × 10^−4 to 2.3, 9.0 × 10^−5 to 2.4, and 5.0 × 10^−5 to 0.54 mL day^−1 kg^−1 with GM values of 0.023, 0.067 and 0.010 mL day^−1 kg^−1, respectively (Fig. 3). The minimum values of the PFAAs Clrenal were calculated on the basis of LOD/2 instead of ND (not detected) in the present study. […] However, Zhang et al. observed that the Clrenal of PFHxS was the lowest among these 3 type of PFAAs[28]. The median Clrenal of PFAAs in the present study was similar to that of Zhou et al.’s study (0.012 mL day^−1 kg^−1 for PFHxS, 0.061 mL day^−1 kg^−1 for PFOA, and 0.010 mL day^−1 kg^−1 for PFOS)[39]. In contrast, as noted elsewhere, the Clrenal values of PFOA were the highest among those of the three PFAAs[28][38]. The most recent study on the elevated serum concentrations of PFAAs in fishery employees from Tangxun Lake also stated that the median Clrenal of PFOA (0.061 mL day^−1 kg^−1) was higher than those of the PFHxS and PFOS (0.012 and 0.010 mL day^−1 kg^−1)[39]. […] Moreover, the renal clearance rates of PFAAs in humans were not obviously influenced by the PFAAs level in the serum. […] In addition, gender could not be discounted. The Clrenal values of PFOS for the male workers were significant lower than those for the females (p < 0.01). Wong et al. studied the elimination rate constant of PFOS in a USA population and speculated that there might be other sex-specific elimination routes other than menstruation between men and women. No significant differences were found between the Clrenal values of PFOA and PFHxS for the males and females tested in the study.
# [4] = Female workers, number 71, menstrual clearance added to renal clearance
smiles,measurement,setting,value
"O=S(=O)(O)C(F)(F)C(F)(F)C(F)(F)C(F)(F)C(F)(F)C(F)(F)C(F)(F)C(F)(F)F [PFOS, perfluorooctanesulfonate]","Half-life estimated through daily elimination, GM",[1]; [4],8.0 years
same,"Half-life estimated through daily elimination, Max",[1]; [4],15.1 years
same,"Half-life estimated through daily elimination, Median",[1]; [4],9.4 years
same,"Half-life estimated through daily elimination, Min",[1]; [4],0.76 years
same,"Half-life estimated through daily elimination, Min","[1]; Male workers, number 136, renal clearance",2.7 years
same,"Half-life estimated through daily elimination, Min","[1]; Total workers, number 207",0.76 years
same,Average annual decline rate of serum concentration,"[2]; 2008 to 2009, 36 workers",37%
same,Half-life estimated by annual decline rates,"[2]; k = average annual serum decline rate, no new inputs assumed, two time points",1.9 years
same,"Ratio of serum-to-urine concentrations (S/U), GM",[3]; all samples,1782
same,"Clrenal, GM",[3]; all workers,0.010 mL/day/kg
same,"Clrenal, range","[3]; all workers, minimum on the basis of LOD/2",5.0 × 10^−5 to 0.54 mL day^−1 kg^−1
same,Renal clearance rate (PFOS),[3]; sampling year 2009,0.028 mL/day/kg and 0.066 mL/day/kg and 0.010 mL/day/kg and 0.013 mL/day/kg and 0.009 mL/day/kg and 0.037 mL/day/kg and 0.018 mL/day/kg and 0.001 mL/day/kg and 0.035 mL/day/kg and 0.004 mL/day/kg and 0.005 mL/day/kg and 0.006 mL/day/kg and 0.003 mL/day/kg and 0.019 mL/day/kg and 0.023 mL/day/kg and 0.007 mL/day/kg and 0.017 mL/day/kg and 0.024 mL/day/kg and 0.030 mL/day/kg and 0.014 mL/day/kg and 0.002 mL/day/kg and 0.032 mL/day/kg
same,Renal clearance rate (PFOS),[3]; sampling year 2010,0.038 mL/day/kg and 0.013 mL/day/kg and 0.014 mL/day/kg and 0.058 mL/day/kg and 0.002 mL/day/kg and 0.004 mL/day/kg and 0.048 mL/day/kg and 0.039 mL/day/kg and 0.008 mL/day/kg and 0.005 mL/day/kg and 0.028 mL/day/kg and 0.009 mL/day/kg and 0.041 mL/day/kg and 0.007 mL/day/kg and 0.027 mL/day/kg and 0.026 mL/day/kg and 0.006 mL/day/kg and 0.034 mL/day/kg and 0.083 mL/day/kg and 0.020 mL/day/kg and 0.017 mL/day/kg and 0.025 mL/day/kg and 0.010 mL/day/kg
same,Renal clearance rate (PFOS),[3]; sampling year 2011,0.007 mL/day/kg and 0.009 mL/day/kg and 0.024 mL/day/kg and 0.052 mL/day/kg and 0.018 mL/day/kg and 0.016 mL/day/kg and 0.028 mL/day/kg and 0.021 mL/day/kg and 0.017 mL/day/kg and 0.029 mL/day/kg and 0.004 mL/day/kg and 0.006 mL/day/kg and 0.003 mL/day/kg and 0.025 mL/day/kg and 0.001 mL/day/kg and 0.013 mL/day/kg and 0.023 mL/day/kg and 0.022 mL/day/kg and 0.020 mL/day/kg and 0.033 mL/day/kg and 0.002 mL/day/kg and 0.091 mL/day/kg and 0.039 mL/day/kg and 0.041 mL/day/kg
